Data: US9796733B2, “Imidazo-pyrazine derivatives useful as soluble guanylate cyclase activators” (Merck Sharp & Dohme Corp., priority 2014, dated 2017)

Experiments:
[1] = test system: Spontaneously hypertensive rats (SHR); assay: Acute efficacy in spontaneously hypertensive rats (SHR): telemetry blood pressure lowering after a single oral dose; format: in vivo, rat
Procedure, shortened: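 Values are the maximum peak fall in systolic pressure after one oral dose (mpk), computed hourly against baseline from a vehicle dose given the day before. Rats were conscious, male, spontaneously hypertensive, with femoral-aortic telemetry recording 30 s every 10 min, 14 days post-surgery.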

sGC α1/β1 heterodimer = target: T1, sGC α1/β1 heterodimer (Homo sapiens, UniProt Q02108+Q02153); assay: Cell-based sGC functional assay (CASA assay): cGMP generation in CHO-K1/sGC cells, HTRF detection; details: for Emax: CHO-K1, percent activation relative to standard Compound A in CHO-K1/sGC cells, read-out: % Act.; for EC50: inflection point (IP) of cGMP generation in CHO-K1/sGC cells, 4P fit, activity expressed as percentage of Compound A
T1 construct: expressed in transfected cells; host or cells: CHO-K1 (clone #7, CHO-K1/sGC)
T1 sequence (Q02108 1-690): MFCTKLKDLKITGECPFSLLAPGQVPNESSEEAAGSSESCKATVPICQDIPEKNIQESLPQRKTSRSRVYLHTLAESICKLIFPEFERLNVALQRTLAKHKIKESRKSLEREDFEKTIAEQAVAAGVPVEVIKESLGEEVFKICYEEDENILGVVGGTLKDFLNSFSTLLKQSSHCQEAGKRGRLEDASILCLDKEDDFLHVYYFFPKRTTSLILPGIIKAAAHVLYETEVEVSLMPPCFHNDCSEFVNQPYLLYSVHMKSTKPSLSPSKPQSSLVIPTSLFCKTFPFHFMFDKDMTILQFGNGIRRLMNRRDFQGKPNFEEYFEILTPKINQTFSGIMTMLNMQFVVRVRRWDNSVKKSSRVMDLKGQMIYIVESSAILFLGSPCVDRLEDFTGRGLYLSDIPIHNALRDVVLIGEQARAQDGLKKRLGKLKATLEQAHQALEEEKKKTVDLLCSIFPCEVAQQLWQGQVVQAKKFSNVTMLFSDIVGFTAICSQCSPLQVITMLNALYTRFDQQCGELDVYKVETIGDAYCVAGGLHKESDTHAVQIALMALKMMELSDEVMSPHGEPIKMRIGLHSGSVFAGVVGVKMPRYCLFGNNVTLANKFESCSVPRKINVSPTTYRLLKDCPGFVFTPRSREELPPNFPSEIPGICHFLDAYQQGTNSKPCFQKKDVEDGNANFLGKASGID
T1 sequence (Q02153 1-619): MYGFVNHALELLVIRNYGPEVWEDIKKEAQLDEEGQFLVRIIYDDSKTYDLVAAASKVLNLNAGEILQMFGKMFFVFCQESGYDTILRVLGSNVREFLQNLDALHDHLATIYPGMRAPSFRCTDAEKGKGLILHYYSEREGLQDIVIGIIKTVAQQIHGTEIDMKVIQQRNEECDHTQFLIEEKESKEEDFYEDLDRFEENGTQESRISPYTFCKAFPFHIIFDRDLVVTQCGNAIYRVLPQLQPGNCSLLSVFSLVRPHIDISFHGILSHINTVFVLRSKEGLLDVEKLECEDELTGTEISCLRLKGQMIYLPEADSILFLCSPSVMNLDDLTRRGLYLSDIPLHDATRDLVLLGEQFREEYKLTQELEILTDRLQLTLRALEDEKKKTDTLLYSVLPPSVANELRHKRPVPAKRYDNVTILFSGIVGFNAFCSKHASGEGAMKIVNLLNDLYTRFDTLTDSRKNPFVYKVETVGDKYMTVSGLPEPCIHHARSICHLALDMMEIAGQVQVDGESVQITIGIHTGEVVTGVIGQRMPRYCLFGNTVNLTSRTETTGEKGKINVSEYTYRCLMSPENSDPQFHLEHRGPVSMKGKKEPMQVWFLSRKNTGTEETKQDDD
Procedure, shortened: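 cGMP was quantified by HTRF after 1 hr, 37° C exposure of thawed CHO-K1 cells expressing sGC α1/β1 to compound, with or without 1 μM DETA-NO. IBMX (0.5 mM) blocked cGMP breakdown, and DMSO was 2.5% final. Percent of standard Compound A's maximal cGMP was fitted (4P) for inflection point.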

Row | Emax (sGC α1/β1 heterodimer) | EC50 (sGC α1/β1 heterodimer) | SMILES | Maximum peak decrease of systolic blood pressure (SBP) in SHR, Cat. ([1]; P.O. 1.0 mpk) | Maximum peak decrease of systolic blood pressure (SBP) in SHR, Cat. ([1]; P.O. 3.0 mpk) | Maximum peak decrease of systolic blood pressure (SBP) in SHR, Cat. ([1]; P.O. 0.3 mpk)
1 | 134% | 176 nM | CC1(c2ccc(F)cc2)C(=O)Nc2nc(-c3cn4ccnc4c(CCC(F)(F)F)n3)nc(N)c21 (stereo not drawn) [Example 184A, 4-amino-5-(4-fluorophenyl)-5-methyl-2-(8-(3,3,3-trifluoropropyl)imidazo[1,2-a]pyrazin-6-yl)-5H-pyrrolo[2,3-d]pyrimidin-6(7H)-one] | B (Category B=SBP in SHRs 20-40 mmHg) |  | 
2 | 132% | 235 nM | Cc1ccc(C2(C)C(=O)Nc3nc(-c4cn5ccnc5c(CCC(F)(F)F)n4)nc(N)c32)cc1 (stereo not drawn) [Example 185A, 4-amino-5-methyl-5-(p-tolyl)-2-(8-(3,3,3-trifluoropropyl)imidazo[1,2-a]pyrazin-6-yl)-5H-pyrrolo[2,3-d]pyrimidin-6(7H)-one] |  | C (Category C=SBP in SHRs>40 mmHg) | 
3 | 129% | 207 nM | CC1(c2ccc(Cl)c(Cl)c2)C(=O)Nc2nc(-c3cn4ccnc4c(CCC(F)(F)F)n3)nc(N)c21 (stereo not drawn) [Example 186A, 4-amino-5-(3,4-dichlorophenyl)-5-methyl-2-(8-(3,3,3-trifluoropropyl)imidazo[1,2-a]pyrazin-6-yl)-5H-pyrrolo[2,3-d]pyrimidin-6(7H)-one] | B (Category B=SBP in SHRs 20-40 mmHg) |  | 
4 | 154% | 304 nM | CC1(c2ccccc2)C(=O)Nc2nc(-c3cn4ccnc4c(CCC(F)(F)F)n3)nc(N)c21 (stereo not drawn) [Example 188B, 4-amino-5-methyl-5-phenyl-2-(8-(3,3,3-trifluoropropyl)imidazo[1,2-a]pyrazin-6-yl)-5H-pyrrolo[2,3-d]pyrimidin-6(7H)-one] |  | B (Category B=SBP in SHRs 20-40 mmHg) | 
5 | 143% | 211 nM | CC1(c2ccc(C(F)(F)F)cc2)C(=O)Nc2nc(-c3cn4ccnc4c(CCC(F)(F)F)n3)nc(N)c21 (stereo not drawn) [Example 189B, 4-amino-5-methyl-5-(4-(trifluoromethyl)phenyl)-2-(8-(3,3,3-trifluoropropyl)imidazo[1,2-a]pyrazin-6-yl)-5H-pyrrolo[2,3-d]pyrimidin-6(7H)-one] |  | B (Category B=SBP in SHRs 20-40 mmHg) | 
6 | 90% | 114 nM | Nc1nc(-c2cn3ccnc3c(CCC(F)(F)F)n2)nc2c1C(c1ccc(Cl)c(F)c1)(C1CC1)C(=O)N2 (stereo not drawn) [Example 190A, 4-amino-5-(4-chloro-3-fluorophenyl)-5-cyclopropyl-2-(8-(3,3,3-trifluoropropyl)imidazo[1,2-a]pyrazin-6-yl)-5H-pyrrolo[2,3-d]pyrimidin-6(7H)-one] |  | C (Category C=SBP in SHRs>40 mmHg) | 
7 | 111% | 355 nM | CC1(c2ccc(F)c(Cl)c2)C(=O)Nc2nc(-c3cn4ccnc4c(CCC(F)(F)F)n3)nc(N)c21 (stereo not drawn) [Example 193B, 4-amino-5-(3-chloro-4-fluorophenyl)-5-methyl-2-(8-(3,3,3-trifluoropropyl)imidazo[1,2-a]pyrazin-6-yl)-5H-pyrrolo[2,3-d]pyrimidin-6(7H)-one] |  | B (Category B=SBP in SHRs 20-40 mmHg) | 
8 | 116% | 268 nM | Nc1nc(-c2cn3ccnc3c(CCC(F)(F)F)n2)nc2c1C(c1ccc(F)cc1)(C1CC1)C(=O)N2 (stereo not drawn) [Example 194B, 4-amino-5-cyclopropyl-5-(4-fluorophenyl)-2-(8-(3,3,3-trifluoropropyl)imidazo[1,2-a]pyrazin-6-yl)-5H-pyrrolo[2,3-d]pyrimidin-6(7H)-one] |  | C (Category C=SBP in SHRs>40 mmHg) | 
9 | 66% | 163 nM | CCC1(c2ccc(Br)cc2)C(=O)Nc2nc(-c3cn4ccnc4c(CCC(F)(F)F)n3)nc(N)c21 (stereo not drawn) [Example 197A, 4-amino-5-(4-bromophenyl)-5-ethyl-2-(8-(3,3,3-trifluoropropyl)imidazo[1,2-a]pyrazin-6-yl)-5H-pyrrolo[2,3-d]pyrimidin-6(7H)-one] |  | B (Category B=SBP in SHRs 20-40 mmHg) | 
10 | 112% | 492 nM | Nc1nc(-c2cn3ccnc3c(CCC(F)(F)F)n2)nc2c1C(c1ccc(Cl)cc1)(C1CC1)C(=O)N2 (stereo not drawn) [Example 198B, 4-amino-5-(4-chlorophenyl)-5-cyclopropyl-2-(8-(3,3,3-trifluoropropyl)imidazo[1,2-a]pyrazin-6-yl)-5H-pyrrolo[2,3-d]pyrimidin-6(7H)-one] | B (Category B=SBP in SHRs 20-40 mmHg) |  | 
11 | 101% | 544 nM | CCC1(c2ccc(Cl)c(F)c2)C(=O)Nc2nc(-c3cn4ccnc4c(CCC(F)(F)F)n3)nc(N)c21 (stereo not drawn) [Example 199A, 4-amino-5-(4-chloro-3-fluorophenyl)-5-ethyl-2-(8-(3,3,3-trifluoropropyl)imidazo[1,2-a]pyrazin-6-yl)-5H-pyrrolo[2,3-d]pyrimidin-6(7H)-one] |  | B (Category B=SBP in SHRs 20-40 mmHg) | 
12 | 140% | 928 nM | CC1(c2ccc(Cl)cn2)C(=O)Nc2nc(-c3cn4ccnc4c(CCC(F)(F)F)n3)nc(N)c21 (stereo not drawn) [Example 201A, 4-amino-5-(5-chloropyridin-2-yl)-5-methyl-2-(8-(3,3,3-trifluoropropyl)imidazo[1,2-a]pyrazin-6-yl)-5H-pyrrolo[2,3-d]pyrimidin-6(7H)-one] |  | C (Category C=SBP in SHRs>40 mmHg) | 
13 | 91% | 870 nM | CC1(c2ccc(F)cn2)C(=O)Nc2nc(-c3cn4ccnc4c(CCC(F)(F)F)n3)nc(N)c21 (stereo not drawn) [Example 202B, 4-amino-5-(5-fluoropyridin-2-yl)-5-methyl-2-(8-(3,3,3-trifluoropropyl)imidazo[1,2-a]pyrazin-6-yl)-5H-pyrrolo[2,3-d]pyrimidin-6(7H)-one] |  | B (Category B=SBP in SHRs 20-40 mmHg) | 
14 | 127% | 20 nM | Nc1nc(-c2cn3ccnc3c(CCCC(F)(F)F)n2)nc2c1C(c1ccc(F)cc1)(C1CC1)C(=O)N2 (stereo not drawn) [Example 205B, 4-amino-5-cyclopropyl-5-(4-fluorophenyl)-2-(8-(4,4,4-trifluorobutyl)imidazo[1,2-a]pyrazin-6-yl)-5H-pyrrolo[2,3-d]pyrimidin-6(7H)-one] |  |  | C (Category C=SBP in SHRs>40 mmHg)
15 | 121% | 44 nM | CC1(c2ccc(OC(F)(F)F)cc2)C(=O)Nc2nc(-c3cn4ccnc4c(CCCC(F)(F)F)n3)nc(N)c21 (stereo not drawn) [Example 207B, 4-amino-5-methyl-2-(8-(4,4,4-trifluorobutyl)imidazo[1,2-a]pyrazin-6-yl)-5-(4-(trifluoromethoxy)phenyl)-5H-pyrrolo[2,3-d]pyrimidin-6(7H)-one] |  |  | B (Category B=SBP in SHRs 20-40 mmHg)
16 | 88% | 36 nM | CC1(c2ccc(Cl)cn2)C(=O)Nc2nc(-c3cn4ccnc4c(CCCC(F)(F)F)n3)nc(N)c21 (stereo not drawn) [Example 208A, 4-amino-5-(5-chloropyridin-2-yl)-5-methyl-2-(8-(4,4,4-trifluorobutyl)imidazo[1,2-a]pyrazin-6-yl)-5H-pyrrolo[2,3-d]pyrimidin-6(7H)-one] |  |  | C (Category C=SBP in SHRs>40 mmHg)
